Assay results published in paper PMC8062543 (Scientific Reports, 2021).
One block for each molecule: values may come before it.

How the values were obtained:
[1] = molecular target: T1, MtmGDH (Methylotuvimicrobium alcaliphilum, UniProt G4T0V2); assay: biochemical; details: read-out: % of control remaining; for remaining activity at 1000 µM: 1 mM; for remaining activity at 5000 µM: 5 mM
T1 construct: gene gdhI; full ORF, N-terminal His6 kept, E. coli Rosetta (DE3), pET28
T1 sequence (G4T0V2 1-271): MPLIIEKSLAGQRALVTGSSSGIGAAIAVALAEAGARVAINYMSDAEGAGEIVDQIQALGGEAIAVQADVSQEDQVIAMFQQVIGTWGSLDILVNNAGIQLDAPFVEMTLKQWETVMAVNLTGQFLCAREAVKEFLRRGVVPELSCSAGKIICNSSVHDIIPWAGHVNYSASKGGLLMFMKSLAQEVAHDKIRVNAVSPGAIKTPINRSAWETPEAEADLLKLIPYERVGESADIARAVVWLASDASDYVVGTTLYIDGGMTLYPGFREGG
Protocol: GDH activity assay The activity of GDH from Mtm. alcaliphilum was measured by recording the rate of NAD^+ or NADP^+ reduction at 30 °C. 1 mL of the reaction mixture routinely contained 50 mM Glycine–NaOH buffer, pH 10.0; 0.3 mM NAD(P)^+ and ~ 1 μg of GDH. The reaction was started with 200 mM D-glucose. The activity of Mb. luteus GDH was measured using 20 mM D-glucose in 50 mM Tris–HCl, pH 8.5. […] The effect of pH on the activity was studied using the following buffers (50 mM): Glycine–NaOH (pH 9.0–10.5), CHES-NaOH (pH 8.5–10.0), Tris–HCl (pH 7.5–9.0), and MES-NaOH (pH 5.0–7.0). KCl, NH4Cl or NaCl at a final concentration of 50 mM were added to test the effect of monovalent ions on the enzyme activity. The effects of divalent metals were assessed using MgCl2, MnCl2, [compound left out], CuCl2, CdCl2, NiCl2 or ZnCl2 at a final concentration of 1 mM. Glucose-6-phosphate, glucose-1-phosphate, fructose-6-phosphate, fructose-1,6-bisphosphate (5 mM), pyruvate, PEP, oxaloacetate, lactate, malate, isocitrate, citrate, succinate, serine, α-ketoglutarate, ATP, ADP, AMP and PPi (1 mM) were examined as potential inhibitors or activators. To determine the optimal temperature for enzyme activity, the reaction was carried out in a temperature range of 10–70 °C.

[2] = molecular target: T2, MtmGntK (Methylotuvimicrobium alcaliphilum, UniProt G4T089); assay: biochemical; design: recombinant gluconate kinase activity, coupled to 6-phosphogluconate dehydrogenase, NADPH at 340 nm, effect of added metabolite; details: read-out: % of control remaining; for remaining activity at 1000 µM: 1 mM; for remaining activity at 5000 µM: 5 mM
T2 construct: gene gntK; C-terminal His6, E. coli Rosetta (DE3), pET30; ~20 kDa, monomer
T2 sequence (G4T089 1-181): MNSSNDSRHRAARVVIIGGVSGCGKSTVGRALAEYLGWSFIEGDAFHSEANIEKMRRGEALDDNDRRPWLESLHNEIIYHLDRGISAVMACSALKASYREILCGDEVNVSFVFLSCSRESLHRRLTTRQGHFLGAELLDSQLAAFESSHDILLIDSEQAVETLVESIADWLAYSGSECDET
Protocol: GntK activity assay The activity of GntK was measured in the reaction mixture containing 50 mM Tris–HCl buffer, pH 9.0; 8 mM MgCl2; 6 mM gluconate; 5 mM ATP; 0.3 mM NADP^+; 5U 6-phosphogluconate dehydrogenase (6PGDH, Sigma-Aldrich) as a coupling enzyme and ~ 15 µg GntK. The activity of Mb. luteus GntK was assayed in 50 mM Tris–HCl buffer (pH 8.0). The reaction was started with 6 mM sodium gluconate. To study the effect of pH, the following buffers were used (50 mM): Carbonate (pH 9.0–10.5), TAPS-NaOH (pH 8.0–9.0), Tris–HCl (pH 7.5–9.0), K-phosphate (pH 7.0–8.0), MES-NaOH (pH 5.0–6.0) or citrate (pH 4.0–5.0). […] The NAD^+/NADP^+ reduction rates were measured at 340 nm with a UV-1700 spectrophotometer (Shimadzu). The apparent Km and Vmax values were calculated using Sigma Plot (version 10). The exponentially grown cells were used to measure enzymatic activity in cell-free extracts.

[3] = molecular target: glucose dehydrogenase (GDH) from Methylobacter luteus IMV-B-3098 (Methylobacter luteus IMV-B-3098); assay: SEC; gel filtration on XK 16/100 Superdex 200, 0.02 M Tris-HCl pH 7.0 with 0.5 M NaCl, calibrated with protein markers; GDHs with the cut-off His-tag
[4] = system: T3, NC(=O)c1ccc[n+]([C@@H]2O[C@H](COP(=O)(O)OP(=O)(O)OC[C@H]3O[C@@H](n4cnc5c(N)ncnc54)[C@H](OP(=O)(O)O)[C@@H]3O)[C@@H](O)[C@H]2O)c1; assay: purified protein; assay type: biochemical, Methylobacter luteus; details: pH 8.5 Tris-HCl, D-glucose
T3 construct: full ORF, N-terminal His6 (pET28Ub-shHis)

[5] = system: T4, NC(=O)c1ccc[n+]([C@@H]2O[C@H](COP(=O)(O)OP(=O)(O)OC[C@H]3O[C@@H](n4cnc5c(N)ncnc54)[C@H](O)[C@@H]3O)[C@@H](O)[C@H]2O)c1; assay: purified protein; assay type: biochemical, Methylobacter luteus; details: pH 8.5 Tris-HCl, D-glucose
T4 construct: full ORF, N-terminal His6 (pET28Ub-shHis)

[6] = molecular target: glucose dehydrogenase (GDH) from Methylotuvimicrobium alcaliphilum 20Z (Methylotuvimicrobium alcaliphilum 20Z); assay: SEC; gel filtration on XK 16/100 Superdex 200, 0.02 M Tris-HCl pH 7.0 with 0.5 M NaCl, calibrated with protein markers; GDHs with the cut-off His-tag
[7] = molecular target: T5, MtmGDH (Methylotuvimicrobium alcaliphilum, UniProt G4T0V2); assay: NAD(P)H formation at […] nm; assay type: biochemical; details: activator; pH 10.0 glycine-NaOH, 30 °C, 200 mM D-glucose
T5 construct: gene gdhI; full ORF, N-terminal His6 kept, E. coli Rosetta (DE3), pET28

[8] = molecular target: T6, MbGDH (Methylobacter luteus, UniProt Z9JUG8QEO0); assay: NAD(P)H formation at […] nm; assay type: biochemical; details: inhibitor; 10 mM in results (5 mM in methods); pH 8.5 Tris-HCl, 20 mM D-glucose
T6 construct: gene gdh; full ORF, N-terminal His6 (pET28Ub-shHis)
T6 sequence (Z9JUG8QEO0 1-271 limits assumed): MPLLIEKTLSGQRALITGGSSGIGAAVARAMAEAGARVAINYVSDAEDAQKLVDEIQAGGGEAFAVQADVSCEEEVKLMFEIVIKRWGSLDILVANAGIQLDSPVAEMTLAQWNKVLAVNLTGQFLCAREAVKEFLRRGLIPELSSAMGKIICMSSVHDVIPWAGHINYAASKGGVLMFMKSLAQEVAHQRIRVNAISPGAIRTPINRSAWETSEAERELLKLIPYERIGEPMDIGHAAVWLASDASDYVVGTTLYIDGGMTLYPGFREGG

[9] = substrate: O=C(O)[C@H](O)[C@@H](O)[C@H](O)[C@H](O)CO; assay: purified protein; assay type: biochemical, Methylotuvimicrobium alcaliphilum; details: pH 9.0 Tris-HCl, 8 mM MgCl2, 5 mM ATP
[10] = substrate: Nc1ncnc2c1ncn2[C@@H]1O[C@H](COP(=O)(O)OP(=O)(O)OP(=O)(O)O)[C@@H](O)[C@H]1O; assay: purified protein; assay type: biochemical, Methylotuvimicrobium alcaliphilum; details: pH 9.0 Tris-HCl, 8 mM MgCl2, 6 mM gluconate, Hill n = 1.6
[11] = substrate: NC(=O)c1ccc[n+]([C@@H]2O[C@H](COP(=O)(O)OP(=O)(O)OC[C@H]3O[C@@H](n4cnc5c(N)ncnc54)[C@H](O)[C@@H]3O)[C@@H](O)[C@H]2O)c1; assay: purified protein; assay type: biochemical, Methylotuvimicrobium alcaliphilum; details: pH 10.0 glycine-NaOH, 30 °C, 200 mM D-glucose
[12] = substrate: NC(=O)c1ccc[n+]([C@@H]2O[C@H](COP(=O)(O)OP(=O)(O)OC[C@H]3O[C@@H](n4cnc5c(N)ncnc54)[C@H](OP(=O)(O)O)[C@@H]3O)[C@@H](O)[C@H]2O)c1; assay: purified protein; assay type: biochemical, Methylotuvimicrobium alcaliphilum; details: pH 10.0 glycine-NaOH, 30 °C, 200 mM D-glucose

remaining activity at 1000 µM [1]: 96 ± 1%
remaining activity at 3000 µM ([2]; 3 mM): 95 ± 2%
Molecule: CC(=O)C(=O)O [Pyruvate]

remaining activity at 1000 µM [1]: 108 ± 3%
Molecule: N[C@@H](CO)C(=O)O [Serine]

stoichiometry N [3]: 4
Molecule: glucose dehydrogenase (GDH) from Methylobacter luteus IMV-B-3098 (enzyme)

remaining activity at 1000 µM [1]: 94%
remaining activity at 5000 µM [2]: 84 ± 1%
Molecule: C=C(OP(=O)(O)O)C(=O)O [Phosphoenolpyruvate]

stoichiometry N [6]: 4
Molecule: glucose dehydrogenase (GDH) from Methylotuvimicrobium alcaliphilum 20Z (enzyme)

remaining activity at 1000 µM [1]: 104 ± 1%
remaining activity at 1000 µM [2]: 90 ± 2%
Molecule: O=C(O)CCC(=O)C(=O)O [α-Ketoglutarate]

remaining activity at 1000 µM [1]: 140 ± 4%
% increase of activity at 1 mM [7]: 40%
Molecule: O=C(O)C[C@H](C(=O)O)[C@@H](O)C(=O)O [isocitrate]

% decrease of activity at 10 mM [8]: 40%
remaining activity at 5000 µM [2]: 96 ± 1%
Molecule: O=P(O)(O)OC[C@H]1OC(O)[C@H](O)[C@@H](O)[C@@H]1O (stereo partly drawn) [glucose-6-phosphate]

remaining activity at 1000 µM [1]: 99 ± 1%
Molecule: O=C(O)CCC(=O)O [Succinate]

Second part, the molecule before the results:

Molecule: CC(O)C(=O)O (stereo not drawn) [Lactate]
remaining activity at 1000 µM [1]: 116 ± 1%

Molecule: O=C(O)CC(=O)C(=O)O [Oxaloacetate]
remaining activity at 1000 µM [1]: 107 ± 3%
remaining activity at 1000 µM [2]: 101 ± 1%

Molecule: MbGDH (Methylobacter luteus)
Km [4]: 1600 ± 300 µM
kcat [4]: 0.067 s⁻¹
Km [5]: 120 ± 20 µM
kcat [5]: 0.05 s⁻¹

Molecule: O=C(O)CC(O)(CC(=O)O)C(=O)O [Citrate]
remaining activity at 1000 µM [1]: 119 ± 1%

Molecule: O=P(O)(O)O[C@H]1O[C@H](CO)[C@@H](O)[C@H](O)[C@H]1O [Glucose 1-Phosphate]
remaining activity at 5000 µM [2]: 96 ± 2%

Molecule: Nc1ncnc2c1ncn2[C@@H]1O[C@H](COP(=O)(O)O)[C@@H](O)[C@H]1O [AMP]
remaining activity at 1000 µM [1]: 109 ± 1%
remaining activity at 4000 µM ([2]; 4 mM): 98 ± 1%

Molecule: Nc1ncnc2c1ncn2[C@@H]1O[C@H](COP(=O)(O)OP(=O)(O)O)[C@@H](O)[C@H]1O [ADP]
remaining activity at 1000 µM [1]: 87 ± 1%
remaining activity at 5000 µM [2]: 71 ± 1%

Molecule: O=C(O)CC(O)C(=O)O (stereo not drawn) [Malate]
remaining activity at 1000 µM [1]: 95 ± 5%

Molecule: O=C(CO)[C@@H](O)[C@H](O)[C@H](O)COP(=O)(O)O [Fructose-6-phosphate]
remaining activity at 5000 µM [1]: 101 ± 1%

Molecule: O=P(O)(O)O[C@H]1O[C@H](CO)[C@@H](O)[C@H](O)[C@H]1O [Glucose-1-phosphate]
remaining activity at 5000 µM [1]: 103 ± 1%

Molecule: O=P(O)(O)OC[C@H]1O[C@@](O)(COP(=O)(O)O)[C@@H](O)[C@@H]1O [Fructose-1,6-bisphosphate]
remaining activity at 5000 µM [1]: 103 ± 1%

Molecule: Nc1ncnc2c1ncn2[C@@H]1O[C@H](COP(=O)(O)OP(=O)(O)OP(=O)(O)O)[C@@H](O)[C@H]1O [ATP]
remaining activity at 1000 µM [1]: 93 ± 2%

B1: MtmGntK (Methylotuvimicrobium alcaliphilum 20Z) (protein)
chain: MNSSNDSRHRAARVVIIGGVSGCGKSTVGRALAEYLGWSFIEGDAFHSEANIEKMRRGEALDDNDRRPWLESLHNEIIYHLDRGISAVMACSALKASYREILCGDEVNVSFVFLSCSRESLHRRLTTRQGHFLGAELLDSQLAAFESSHDILLIDSEQAVETLVESIADWLAYSGSECDET
notes: C-terminal His6, E. coli Rosetta (DE3), pET30; ~20 kDa, monomer
K0.5 [9]: 0.6 ± 0.04 mM
kcat [9]: 0.00433 s⁻¹
K0.5 [10]: 1.3 ± 0.2 mM
kcat [10]: 0.00867 s⁻¹

B2: MtmGDH without His6-tag (Methylotuvimicrobium alcaliphilum 20Z) (protein)
chain: MPLIIEKSLAGQRALVTGSSSGIGAAIAVALAEAGARVAINYMSDAEGAGEIVDQIQALGGEAIAVQADVSQEDQVIAMFQQVIGTWGSLDILVNNAGIQLDAPFVEMTLKQWETVMAVNLTGQFLCAREAVKEFLRRGVVPELSCSAGKIICNSSVHDIIPWAGHVNYSASKGGLLMFMKSLAQEVAHDKIRVNAVSPGAIKTPINRSAWETPEAEADLLKLIPYERVGESADIARAVVWLASDASDYVVGTTLYIDGGMTLYPGFREGG
notes: full ORF, His6 tag cut off with Usp2-His6 protease (not repurified afterwards), E. coli Rosetta (DE3), pET28Ub-shHis; homotetramer 112 kDa
Km [11]: 390 ± 60 µM
Km [12]: 340 ± 20 µM

B3: MtmGDH (Methylotuvimicrobium alcaliphilum 20Z) (protein)
chain: MPLIIEKSLAGQRALVTGSSSGIGAAIAVALAEAGARVAINYMSDAEGAGEIVDQIQALGGEAIAVQADVSQEDQVIAMFQQVIGTWGSLDILVNNAGIQLDAPFVEMTLKQWETVMAVNLTGQFLCAREAVKEFLRRGVVPELSCSAGKIICNSSVHDIIPWAGHVNYSASKGGLLMFMKSLAQEVAHDKIRVNAVSPGAIKTPINRSAWETPEAEADLLKLIPYERVGESADIARAVVWLASDASDYVVGTTLYIDGGMTLYPGFREGG
notes: full ORF, N-terminal His6 kept, E. coli Rosetta (DE3), pET28
Km [11]: 360 ± 20 µM
kcat [11]: 0.177 s⁻¹
Km [12]: 140 ± 10 µM
kcat [12]: 0.00583 s⁻¹
